According to patent US20240158391A1, “DERIVATIVES OF 4-(IMIDAZO[1,2-A]PYRIDIN-3-YL)-N-(PYRIDIN-3-YL) PYRIMIDIN-2- AMINE FOR TREATING PROLIFERATIVE DISEASES AND CONDITIONS” (AUCENTRA THERAPEUTICS PTY LTD, priority 2019, published 2024):

Columns and labels:
CDK9/CyclinT1 = CDK9/CyclinT1 (Homo sapiens, UniProt P50750); assay: ADP Glo kinase assay, CDK9/CyclinT1; assay type: biochemical; settings: CDK9/CyclinT1; Km ATP; read-out: Enzymatic inhibition, Ki, CDK9 T1
Description: (§1) Test compounds are used in 1:3 serial dilutions for 10 concentrations (from 10-0.0005 μM) in 0.5% DMSO. […] The kinase reactions are run for optimised time period at room temperature and then the reaction is stopped by adding 5 μL of ADP Glo reagent.

CDK1/CyclinB = CDK1/CyclinB (Homo sapiens, UniProt P06493); assay: ADP Glo kinase assay, CDK1/CyclinB; assay type: biochemical; settings: for remaining activity at 1 µM: compound at 1 μM, read-out: Residual enzymatic activity (%) at 1 μM, CDK1 B
CDK1/CyclinB, sequence (P06493 whole entry, species assumed): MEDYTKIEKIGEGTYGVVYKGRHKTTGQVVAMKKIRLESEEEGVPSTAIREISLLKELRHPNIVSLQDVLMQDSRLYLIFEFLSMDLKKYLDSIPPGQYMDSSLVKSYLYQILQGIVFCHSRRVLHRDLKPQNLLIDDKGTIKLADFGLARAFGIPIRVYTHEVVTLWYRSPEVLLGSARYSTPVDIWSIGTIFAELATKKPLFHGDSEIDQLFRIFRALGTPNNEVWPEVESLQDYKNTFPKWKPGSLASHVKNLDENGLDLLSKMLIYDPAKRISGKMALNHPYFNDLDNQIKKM
CDK1/CyclinB, sequence (P14635 whole entry partner, species assumed): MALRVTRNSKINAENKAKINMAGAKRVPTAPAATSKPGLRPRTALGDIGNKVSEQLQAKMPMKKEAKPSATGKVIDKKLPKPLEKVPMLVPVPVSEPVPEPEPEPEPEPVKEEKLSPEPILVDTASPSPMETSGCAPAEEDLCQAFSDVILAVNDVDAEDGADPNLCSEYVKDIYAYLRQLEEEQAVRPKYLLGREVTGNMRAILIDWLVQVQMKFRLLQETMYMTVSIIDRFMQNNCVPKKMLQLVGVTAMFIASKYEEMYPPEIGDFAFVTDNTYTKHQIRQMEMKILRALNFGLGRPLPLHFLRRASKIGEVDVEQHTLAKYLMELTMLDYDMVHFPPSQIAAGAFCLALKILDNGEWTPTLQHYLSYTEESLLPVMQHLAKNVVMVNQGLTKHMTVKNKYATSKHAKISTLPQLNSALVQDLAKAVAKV
Description: as §1

CDK7/CyclinH/Mat1 = CDK7/CyclinH/Mat1 (Homo sapiens, UniProt P50613); assay: ADP Glo kinase assay, CDK7/CyclinH/Mat1; assay type: biochemical; settings: compound at 1 μM, read-out: Residual enzymatic activity (%) at 1 μM, CDK7 H
CDK7/CyclinH/Mat1, sequence (P50613 whole entry, species assumed): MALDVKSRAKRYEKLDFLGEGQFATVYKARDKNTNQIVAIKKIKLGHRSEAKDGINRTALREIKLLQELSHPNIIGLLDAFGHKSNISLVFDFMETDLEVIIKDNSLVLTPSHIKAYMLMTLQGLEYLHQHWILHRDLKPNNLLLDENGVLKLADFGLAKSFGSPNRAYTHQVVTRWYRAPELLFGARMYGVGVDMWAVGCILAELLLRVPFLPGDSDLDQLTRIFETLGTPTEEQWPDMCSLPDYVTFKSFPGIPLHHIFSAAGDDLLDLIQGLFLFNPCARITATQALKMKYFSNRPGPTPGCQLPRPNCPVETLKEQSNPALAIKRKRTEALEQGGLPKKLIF
CDK7/CyclinH/Mat1, sequence (P51946 whole entry partner, species assumed): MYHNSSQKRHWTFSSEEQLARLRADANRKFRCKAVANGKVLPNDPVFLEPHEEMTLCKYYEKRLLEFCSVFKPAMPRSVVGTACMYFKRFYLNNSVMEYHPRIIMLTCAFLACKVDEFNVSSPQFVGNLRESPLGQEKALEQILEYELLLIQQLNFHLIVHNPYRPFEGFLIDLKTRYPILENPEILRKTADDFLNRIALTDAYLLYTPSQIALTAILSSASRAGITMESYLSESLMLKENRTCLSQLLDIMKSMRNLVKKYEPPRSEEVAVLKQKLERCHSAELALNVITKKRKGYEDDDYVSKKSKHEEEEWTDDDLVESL
CDK7/CyclinH/Mat1, sequence (P51948 whole entry partner, species assumed): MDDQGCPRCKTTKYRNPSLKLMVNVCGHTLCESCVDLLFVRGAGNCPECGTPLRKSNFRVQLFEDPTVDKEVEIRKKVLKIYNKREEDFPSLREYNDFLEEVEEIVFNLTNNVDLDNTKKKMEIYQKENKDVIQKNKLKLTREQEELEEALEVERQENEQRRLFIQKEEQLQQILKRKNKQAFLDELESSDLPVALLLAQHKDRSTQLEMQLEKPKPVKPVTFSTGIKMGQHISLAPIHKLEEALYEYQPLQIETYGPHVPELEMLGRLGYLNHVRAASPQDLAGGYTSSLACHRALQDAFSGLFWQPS
Description: as §1

CDK2/CyclinA2 = CDK2/CyclinA2 (Homo sapiens, UniProt P24941); assay: ADP Glo kinase assay, CDK2/CyclinA2; assay type: biochemical; settings: for remaining activity at 1 µM: compound at 1 μM, read-out: Residual enzymatic activity (%) at 1 μM, CDK2 A; for Ki: Km ATP, read-out: Enzymatic inhibition, Ki, CDK2 A
Description: as §1

MV-4-11 = assay: Proliferation assay (resazurin, leukemia cell lines), MV-4-11; assay type: cell-based; settings: Homo sapiens, MV4-11, read-out: 72 h Growth inhibition GI50, MV-4-11 cells
Excerpt: The following compounds were used as comparators.

CDK6/CyclinD3 = CDK6/CyclinD3 (Homo sapiens, UniProt Q00534); assay: ADP Glo kinase assay, CDK6/CyclinD3; assay type: biochemical; settings: compound at 1 μM, read-out: Residual enzymatic activity (%) at 1 μM, CDK6 D3
CDK6/CyclinD3, sequence (Q00534 whole entry, species assumed): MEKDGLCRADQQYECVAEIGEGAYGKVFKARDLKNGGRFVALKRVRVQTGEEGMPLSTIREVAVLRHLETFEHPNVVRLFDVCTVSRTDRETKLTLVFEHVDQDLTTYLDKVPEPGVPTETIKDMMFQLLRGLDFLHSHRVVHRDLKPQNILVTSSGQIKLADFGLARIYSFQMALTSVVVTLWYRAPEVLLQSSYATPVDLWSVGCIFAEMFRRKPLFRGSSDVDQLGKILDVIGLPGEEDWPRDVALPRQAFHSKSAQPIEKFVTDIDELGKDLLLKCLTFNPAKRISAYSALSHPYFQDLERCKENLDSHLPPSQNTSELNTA
CDK6/CyclinD3, sequence (P30281 whole entry partner, species assumed): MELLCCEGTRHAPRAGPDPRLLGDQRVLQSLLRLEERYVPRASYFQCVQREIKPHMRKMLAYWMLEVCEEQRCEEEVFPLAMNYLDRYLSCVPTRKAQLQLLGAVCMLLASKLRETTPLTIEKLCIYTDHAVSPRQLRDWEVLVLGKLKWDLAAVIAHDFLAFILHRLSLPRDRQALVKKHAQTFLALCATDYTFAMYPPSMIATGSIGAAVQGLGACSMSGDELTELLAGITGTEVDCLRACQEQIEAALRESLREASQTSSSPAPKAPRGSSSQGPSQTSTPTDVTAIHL
Description: as §1

FLT3-ITD = biological target: T1, FLT3-ITD (Homo sapiens, UniProt P36888); assay: ADP Glo kinase assay, FLT3-ITD; assay type: biochemical; settings: for Ki: Km ATP 100 μM, read-out: Enzymatic inhibition, Ki, FLT3-ITD
T1 sequence (P36888 1-993): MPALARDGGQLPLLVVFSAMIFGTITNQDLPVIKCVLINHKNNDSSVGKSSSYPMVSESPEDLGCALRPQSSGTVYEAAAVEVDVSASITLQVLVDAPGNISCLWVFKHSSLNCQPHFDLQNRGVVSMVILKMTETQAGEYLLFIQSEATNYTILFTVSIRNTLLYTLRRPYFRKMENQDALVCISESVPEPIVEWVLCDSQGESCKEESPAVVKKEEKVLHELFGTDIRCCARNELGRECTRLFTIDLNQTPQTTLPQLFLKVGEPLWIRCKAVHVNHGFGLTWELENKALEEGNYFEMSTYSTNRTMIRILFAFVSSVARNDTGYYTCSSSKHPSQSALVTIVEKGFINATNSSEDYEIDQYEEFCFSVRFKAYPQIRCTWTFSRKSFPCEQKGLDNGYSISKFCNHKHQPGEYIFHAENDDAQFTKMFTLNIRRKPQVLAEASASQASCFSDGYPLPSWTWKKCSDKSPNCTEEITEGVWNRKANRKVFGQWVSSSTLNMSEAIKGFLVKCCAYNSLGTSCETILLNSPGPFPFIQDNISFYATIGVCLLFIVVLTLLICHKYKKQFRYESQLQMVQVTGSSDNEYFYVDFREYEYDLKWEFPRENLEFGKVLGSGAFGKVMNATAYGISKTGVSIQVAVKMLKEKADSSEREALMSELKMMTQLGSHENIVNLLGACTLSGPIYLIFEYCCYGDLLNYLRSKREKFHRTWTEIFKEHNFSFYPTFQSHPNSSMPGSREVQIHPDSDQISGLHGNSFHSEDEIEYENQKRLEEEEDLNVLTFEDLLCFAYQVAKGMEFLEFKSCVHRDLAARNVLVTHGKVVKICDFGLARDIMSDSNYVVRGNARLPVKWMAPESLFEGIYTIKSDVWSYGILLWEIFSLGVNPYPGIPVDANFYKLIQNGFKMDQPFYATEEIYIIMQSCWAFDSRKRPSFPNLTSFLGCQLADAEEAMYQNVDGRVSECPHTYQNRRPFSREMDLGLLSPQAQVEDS
Description: as §1

CDK9/CyclinT1, sequence (P50750 whole entry, species assumed): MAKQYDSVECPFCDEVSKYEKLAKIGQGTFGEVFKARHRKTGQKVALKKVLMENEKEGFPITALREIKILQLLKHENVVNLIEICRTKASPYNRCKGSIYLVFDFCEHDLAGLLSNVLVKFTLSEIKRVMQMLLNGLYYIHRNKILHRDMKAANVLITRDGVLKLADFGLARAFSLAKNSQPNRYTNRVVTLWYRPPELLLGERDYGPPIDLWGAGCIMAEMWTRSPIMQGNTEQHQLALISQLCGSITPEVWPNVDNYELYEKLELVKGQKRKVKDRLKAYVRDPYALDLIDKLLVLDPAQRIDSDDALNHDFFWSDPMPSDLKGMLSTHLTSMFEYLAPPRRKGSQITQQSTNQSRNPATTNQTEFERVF
CDK9/CyclinT1, sequence (O60563 whole entry partner, species assumed): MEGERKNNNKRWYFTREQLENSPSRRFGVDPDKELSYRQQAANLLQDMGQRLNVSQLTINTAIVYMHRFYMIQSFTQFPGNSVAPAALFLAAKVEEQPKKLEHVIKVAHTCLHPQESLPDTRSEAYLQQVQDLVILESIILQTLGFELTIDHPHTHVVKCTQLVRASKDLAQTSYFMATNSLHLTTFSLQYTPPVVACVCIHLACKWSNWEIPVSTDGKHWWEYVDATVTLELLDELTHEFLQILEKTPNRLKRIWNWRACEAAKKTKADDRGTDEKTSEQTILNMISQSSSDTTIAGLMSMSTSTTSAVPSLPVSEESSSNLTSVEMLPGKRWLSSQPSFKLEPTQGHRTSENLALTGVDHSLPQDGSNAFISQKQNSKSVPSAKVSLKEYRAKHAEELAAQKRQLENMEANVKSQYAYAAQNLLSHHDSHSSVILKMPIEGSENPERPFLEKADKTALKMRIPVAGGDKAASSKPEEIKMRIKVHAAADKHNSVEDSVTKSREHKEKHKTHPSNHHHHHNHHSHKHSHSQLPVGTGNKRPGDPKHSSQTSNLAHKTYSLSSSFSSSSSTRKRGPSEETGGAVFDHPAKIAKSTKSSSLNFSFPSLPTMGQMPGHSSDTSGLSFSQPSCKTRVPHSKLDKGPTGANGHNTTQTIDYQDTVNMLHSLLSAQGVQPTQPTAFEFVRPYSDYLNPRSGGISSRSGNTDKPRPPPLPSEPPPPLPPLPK

Structure (SMILES)	Ki (CDK9/CyclinT1) [µM]	remaining activity at 1 µM (CDK1/CyclinB) [%]	remaining activity at 1 µM (CDK7/CyclinH/Mat1) [%]	remaining activity at 1 µM (CDK2/CyclinA2) [%]	GI50 (MV-4-11) [µM]	remaining activity at 1 µM (CDK6/CyclinD3) [%]	Ki (FLT3-ITD) [µM]	Ki (CDK2/CyclinA2) [µM]	Ki (CDK1/CyclinB; Km ATP, read-out: Enzymatic inhibition, Ki, CDK1 B) [µM]	Residual enzymatic activity (%) at 1 μM, FLT3-ITD (FLT3-ITD; compound at 1 μM) [%]
CN1CCN(c2ccc(Nc3nccc(-c4cnc5ccc(-c6ccccc6)cn45)n3)nc2)CC1 [Comparator compound A, N-(5-(4-methylpiperazin-1-yl)pyridin-2-yl)-4-(6-phenylimidazo[1,2-a]pyridin-3-yl)pyrimidin-2-amine, reference compound]	0.083	87	66	86						
CS(=O)(=O)N1CCN(c2ccc(Nc3nccc(-c4cnc5ccc(-c6cc7ccccc7o6)cn45)n3)cn2)CC1 [Compound 52, 4-(6-(Benzofuran-2-yl)imidazo[1,2-a]pyridin-3-yl)-N-(6-(4-(methylsulfonyl)piperazin-1-yl)pyridin-3-yl)pyrimidin-2-amine]	> 0.5	62	99	97	0.023	100	0.057			
CC(C)N1CCN(c2ccc(Nc3nccc(-c4cnc5ccc(-c6cncnc6)cn45)n3)cn2)CC1 [Compound 53, N-(6-(4-Isopropylpiperazin-1-yl)pyridin-3-yl)-4-(6-(pyrimidin-5-yl)imidazo[1,2-a]pyridin-3-yl)pyrimidin-2-amine]	0.092	71	56	75	0.046	66	0.071			
CC(C)N1CCN(c2ccc(Nc3nccc(-c4cnc5ccc(-c6ccc(F)nc6)cn45)n3)cn2)CC1 [Compound 55, 4-(6-(6-Fluoropyridin-3-yl)imidazo[1,2-a]pyridin-3-yl)-N-(6-(4-isopropylpiperazin-1-yl)-pyridin-3-yl)pyrimidin-2-amine]	0.036	50	38	62	0.116	55	0.028			
CS(=O)(=O)N1CCN(c2ccc(Nc3nccc(-c4cnc5ccc(-c6ccc(F)nc6)cn45)n3)cn2)CC1 [Compound 56, 4-(6-(6-Fluoropyridin-3-yl)imidazo[1,2-a]pyridin-3-yl)-N-(6-(4-(methylsulfonyl)piperazin-1-yl)pyridin-3-yl)pyrimidin-2-amine]	0.38	78	94	36	0.023	96	0.084			
Brc1ccc2ncc(-c3ccnc(Nc4ccc(NC5CCOCC5)nc4)n3)n2c1 [Compound 57, N^5-(4-(6-Bromoimidazo[1,2-a]pyridin-3-yl)pyrimidin-2-yl)-N^2-(tetrahydro-2H-pyran-4-yl)pyridine-2,5-diamine]	0.103	57	88		0.03	93	0.04	0.056		
CCS(=O)(=O)N1CCN(c2ccc(Nc3nccc(-c4cnc5ccc(-c6ccccc6)cn45)n3)cn2)CC1 [Compound 60, N-(6-(4-(Ethylsulfonyl)piperazin-1-yl)pyridin-3-yl)-4-(6-phenylimidazo[1,2-a]pyridin-3-yl)pyrimidin-2-amine]	0.509	61	100	91	0.02	100	0.142			
CCS(=O)(=O)N1CCN(c2ccc(Nc3nccc(-c4cnc5ccc(-c6ccc(F)nc6)cn45)n3)cn2)CC1 [Compound 61, N-(6-(4-(Ethylsulfonyl)piperazin-1-yl)pyridin-3-yl)-4-(6-(6-fluoropyridin-3-yl)imidazo[1,2-a]pyridin-3-yl)pyrimidin-2-amine]	0.428	38	57	71	0.02	72	0.149			
O=C(c1ccco1)N1CCN(c2ccc(Nc3nccc(-c4cnc5ccc(Br)cn45)n3)cn2)CC1 [Compound 62, (4-(5-((4-(6-Bromoimidazo[1,2-a]pyridin-3-yl)pyrimidin-2-yl)amino)pyridin-2-yl)piperazin-1-yl)(furan-2-yl)methanone]	0.541	39	60	57	0.052	76	0.188			
O=C(c1ccco1)N1CCN(c2ccc(Nc3nccc(-c4cnc5ccc(-c6ccccc6)cn45)n3)cn2)CC1 [Compound 63, Furan-2-yl(4-(5-((4-(6-phenylimidazo[1,2-a]pyridin-3-yl)pyrimidin-2-yl)amino)pyridin-2-yl)piperazin-1-yl)methanone]	0.242	26	93	49	0.025	100	0.082			
COc1cc(F)cc(-c2ccc3ncc(-c4ccnc(Nc5ccc(N6CCN(C)CC6)nc5)n4)n3c2)c1 [Compound 64, 4-(6-(3-Fluoro-5-methoxyphenyl)imidazo[1,2-a]pyridin-3-yl)-N-(6-(4-methylpiperazin-1-yl)pyridin-3-yl)pyrimidin-2-amine]	0.026	57	38	90	0.002	66	0.006			
CN(C)c1ccc(Nc2nccc(-c3cnc4ccc(-c5ccccc5)cn34)n2)cn1 [Compound 66, N^2,N^2-Dimethyl-N^5-(4-(6-phenylimidazo[1,2-a]pyridin-3-yl)pyrimidin-2-yl)pyridine-2,5-diamine]	0.468	76	64	73	0.017	79	0.22			
CN(C)c1ccc(Nc2nccc(-c3cnc4ccc(C5=CCN(C(=O)OC(C)(C)C)CC5)cn34)n2)cn1 [Compound 67, Tert-butyl 4-(3-(2-((6-(dimethylamino)pyridin-3-yl)amino)pyrimidin-4-yl)imidazo[1,2-a]pyridin-6-yl)-3,6-dihydropyridine-1(2H)-carboxylate]	1.63	67	68	93	0.362	78	> 0.5			
CN(C)c1ccc(Nc2nccc(-c3cnc4ccc(-c5ccc(F)nc5)cn34)n2)cn1 [Compound 68, N^5-(4-(6-(6-Fluoropyridin-3-yl)imidazo[1,2-a]pyridin-3-yl)pyrimidin-2-yl)-N^2,N^2-dimethylpyridine-2,5-diamine]	0.174	37	71	61	0.013	81	0.062			
CN(C)c1ccc(Nc2nccc(-c3cnc4ccc(C5=CCNCC5)cn34)n2)cn1 [Compound 69, N^2,N^2-Dimethyl-N^5-(4-(6-(1,2,3,6-tetrahydropyridin-4-yl)imidazo[1,2-a]pyridin-3-yl)pyrimidin-2-yl)pyridine-2,5-diamine]	0.016		65		0.152	81		0.082	0.116	30
